Laboratory results published in paper PMC11470957, “Principles of paralog-specific targeted protein degradation engaging the C-degron E3 KLHDC2” (Nature Communications, 2024).
“And” between values parts separate entries of the source, which are not always exact repeats. Identical values can stand only once. Like-named read-outs stand apart in the source and are kept apart here.

What was measured:
[1] = molecular target: BRD3 (Homo sapiens, UniProt Q15059); assay: Western blot of BRD3 levels after cellular dosing
[2] = molecular target: BRD4 (Homo sapiens, UniProt O60885); assay: Western blot of BRD4 levels after cellular dosing

Sequence of BRD3 (Q15059 whole entry): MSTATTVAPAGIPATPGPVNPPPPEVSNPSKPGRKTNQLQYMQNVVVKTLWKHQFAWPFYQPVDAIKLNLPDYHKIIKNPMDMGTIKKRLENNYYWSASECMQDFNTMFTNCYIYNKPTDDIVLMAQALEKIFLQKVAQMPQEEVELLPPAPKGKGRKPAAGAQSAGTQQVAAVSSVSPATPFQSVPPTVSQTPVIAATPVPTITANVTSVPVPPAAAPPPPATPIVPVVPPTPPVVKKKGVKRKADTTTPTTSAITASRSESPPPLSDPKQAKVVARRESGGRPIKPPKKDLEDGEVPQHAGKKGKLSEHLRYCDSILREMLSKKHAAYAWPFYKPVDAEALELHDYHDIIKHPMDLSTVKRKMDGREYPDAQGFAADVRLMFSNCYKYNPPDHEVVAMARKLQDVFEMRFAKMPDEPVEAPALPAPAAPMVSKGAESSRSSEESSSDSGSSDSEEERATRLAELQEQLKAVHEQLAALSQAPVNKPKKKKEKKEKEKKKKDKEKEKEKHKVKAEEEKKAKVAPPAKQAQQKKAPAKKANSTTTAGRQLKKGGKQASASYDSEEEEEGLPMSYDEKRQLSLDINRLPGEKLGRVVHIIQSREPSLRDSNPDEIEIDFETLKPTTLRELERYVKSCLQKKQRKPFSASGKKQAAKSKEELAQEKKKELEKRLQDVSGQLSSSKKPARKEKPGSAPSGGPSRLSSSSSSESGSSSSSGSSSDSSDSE

`COC(=O)CNC(=O)Cc1csc(-c2ccc3cccc(OCCN4CCN(C(=O)C[C@@H]5N=C(c6ccc(Cl)cc6)c6c(sc(C)c6C)-n6c(C)nnc65)CC4)c3c2)n1` [SJ46420] showed a DC50 ([1]; read-out: BRD3 DC50, PC3, 24 h dose) of 487 nM, a Dmax ([1]; read-out: BRD3 Dmax, PC3, 24 h dose) of 99.9% and a remaining activity at 5 µM ([1]; read-out: BRD3 level, Western blot quantification (DMSO = 100), Fig 6b, KO/Rescue) of 105%. It also gave a remaining activity at 1 µM ([1]; read-out: BRD3 level, Western blot quantification (DMSO = 100), Fig 6c, 1 uM) of 43.9%, a remaining activity at 1 µM ([1]; read-out: BRD3 level, Western blot quantification (DMSO = 100), Fig 6d, 1 uM) of 19% and a remaining activity at 1 µM ([1]; read-out: BRD3 level, Western blot quantification (DMSO = 100), Fig 6d, 1uM together with 1uM MLN4924) of 120%. For the same compound, the remaining activity at 0.625 µM ([1]; read-out: BRD3 level, Western blot quantification (DMSO = 100), Fig S6e, PC3 KO/rescue Dose Response, 0.625 uM) was 47.6%, the remaining activity at 1.25 µM ([1]; read-out: BRD3 level, Western blot quantification (DMSO = 100), Fig S6e, PC3 KO/rescue Dose Response, 1.25 uM) was 11.4% and the remaining activity at 2.5 µM ([1]; read-out: BRD3 level, Western blot quantification (DMSO = 100), Fig S6e, PC3 KO/rescue Dose Response, 2.5 uM) was 0.66%. The remaining activity at 5 µM ([1]; read-out: BRD3 level, Western blot quantification (DMSO = 100), Fig S6e, PC3 KO/rescue Dose Response) was 0.34%, the remaining activity at 10 µM ([1]; read-out: BRD3 level, Western blot quantification (DMSO = 100), Fig S6e, PC3 KO/rescue Dose Response, 10uM) was 0.161% and the “BRD degradation activity in U2OS cells” value ([1]; wild-type U2OS, 24 h dose, Fig 6b) was “efficiently and selectively targeted BRD3 for degradation”. For the same compound, the “BRD4 level relative to DMSO (100%)” value ([2]; 22Rv1, 0.16µM, 24 h, Fig S6f) was 105 +/- 5.8%, the “BRD4 level relative to DMSO (100%)” value ([2]; 22Rv1, 0.63µM, 24 h, Fig S6f) was 101 +/- 7.2% and the “BRD4 level relative to DMSO (100%)” value ([2]; 22Rv1, 1.3µM, 24 h, Fig S6f) was 89 +/- 2.9%. The “BRD4 level relative to DMSO (100%)” value ([2]; 22Rv1, 2.5µM, 24 h, Fig S6f) was 88 +/- 11%, the “BRD4 level relative to DMSO (100%)” value ([2]; 22Rv1, 5µM, 24 h, Fig S6f) was 83 +/- 10% and the “BRD4 level relative to DMSO (100%)” value ([2]; 22Rv1, 10µM, 24 h, Fig S6f) was 68 +/- 15%. The Dmax ([2]; 22Rv1, read-out: BRD4 Dmax, 22Rv1, 24 h dose) was 30%, the “BRD4 level relative to DMSO (100%)” value ([2]; 293T, 2.5µM, 24 h, Fig S6a) was 98 +/- 5.3% and the “BRD4 level relative to DMSO (100%)” value ([2]; 293T, 5µM, 24 h, Fig S6a) was 79 +/- 6.6%. For the same compound, the “BRD4 level relative to DMSO (100%)” value ([2]; AU565, 0.2µM, 8 h, Fig S6c) was 82 +/- 4.7%, the “BRD4 level relative to DMSO (100%)” value ([2]; AU565, 1µM, 8 h, Fig S6c) was 53 +/- 5.1% and the “BRD4 level relative to DMSO (100%)” value ([2]; AU565, 5µM, 8 h, Fig S6c) was 4.1 +/- 1.3%. The “BRD4 level, Western blot quantification (DMSO = 100)” value (shortened to “BRD4 level … (DMSO = 100)”) ([2]; Fig 6b, KO/Rescue, 5 uM) was 91.0765 and 107.689, the “BRD4 level … (DMSO = 100)” value ([2]; Fig 6b, U2OS, 5 uM) was 77.4849 and 71.6749 and the “BRD4 level … (DMSO = 100)” value ([2]; Fig 6c, 1 uM) was 92.7102 and 86.955. For the same compound, the “BRD4 level … (DMSO = 100)” value ([2]; Fig 6d, 1 uM) was 67.4942 and 82.9736, the “BRD4 level … (DMSO = 100)” value ([2]; Fig 6d, 1uM together with 1uM MLN4924) was 118.408 and 100.267 and the “BRD4 level … (DMSO = 100)” value ([2]; Fig S6a, 293T cells, 2.5 uM) was 94.5347 and 102.135. For the same compound, the “BRD4 level … (DMSO = 100)” value ([2]; Fig S6a, 293T cells, 5 uM) was 74.6014 and 84.7353, the “BRD4 level … (DMSO = 100)” value ([2]; Fig S6b, MDA-MB468 Cells, 2 uM) was 86.0887 and 95.6433 and the “BRD4 level … (DMSO = 100)” value ([2]; Fig S6b, MDA-MB468 Cells, 5 uM) was 75.9577 and 82.1258. For the same compound, the “BRD4 level … (DMSO = 100)” value ([2]; Fig S6b, MDA-MB468 Cells, 10 uM) was 65.8655 and 71.3135, the “BRD4 level … (DMSO = 100)” value ([2]; Fig S6c, AU565 Cells, 0.2 uM) was 78.2951 and 85.4236 and the “BRD4 level … (DMSO = 100)” value ([2]; Fig S6c, AU565 Cells, 1 uM) was 49.0527 and 56.2352. For the same compound, the “BRD4 level … (DMSO = 100)” value ([2]; Fig S6c, AU565 Cells, 5 uM) was 3.1923 and 5.662, the “BRD4 level … (DMSO = 100)” value ([2]; Fig S6e, PC3 KO/rescue Dose Response, 0.156 uM) was 98.9143 and 85.6296 and the “BRD4 level … (DMSO = 100)” value ([2]; Fig S6e, PC3 KO/rescue Dose Response, 0.313 uM) was 95.5722 and 70.9157. The “BRD4 level … (DMSO = 100)” value ([2]; Fig S6e, PC3 KO/rescue Dose Response, 0.625 uM) was 77.9263 and 60.6542, the “BRD4 level … (DMSO = 100)” value ([2]; Fig S6e, PC3 KO/rescue Dose Response, 1.25 uM) was 36.0358 and 57.3958 and the “BRD4 level … (DMSO = 100)” value ([2]; Fig S6e, PC3 KO/rescue Dose Response, 2.5 uM) was 28.2357 and 25.3138. The “BRD4 level … (DMSO = 100)” value ([2]; Fig S6e, PC3 KO/rescue Dose Response, 5 uM) was 3.953 and 2.975, the “BRD4 level … (DMSO = 100)” value ([2]; Fig S6e, PC3 KO/rescue Dose Response, 10uM) was 0.3603 and 0.6573 and the “BRD4 level … (DMSO = 100)” value ([2]; Fig S6f, 22RV1 KO/rescue Dose Response, 0.156 uM) was 101.401 and 109.713. The “BRD4 level … (DMSO = 100)” value ([2]; Fig S6f, 22RV1 KO/rescue Dose Response, 0.313 uM) was 109.261 and 111.474, the “BRD4 level … (DMSO = 100)” value ([2]; Fig S6f, 22RV1 KO/rescue Dose Response, 0.625 uM) was 106.365 and 96.1732 and the “BRD4 level … (DMSO = 100)” value ([2]; Fig S6f, 22RV1 KO/rescue Dose Response, 1.25 uM) was 91.1283 and 87.0112. The “BRD4 level … (DMSO = 100)” value ([2]; Fig S6f, 22RV1 KO/rescue Dose Response, 2.5 uM) was 95.8637 and 80.8873, the “BRD4 level … (DMSO = 100)” value ([2]; Fig S6f, 22RV1 KO/rescue Dose Response, 5 uM) was 91.3116 and 76.191 and the “BRD4 level … (DMSO = 100)” value ([2]; Fig S6f, 22RV1 KO/rescue Dose Response, 10uM) was 79.6577 and 57.9117. The “BRD4 level … (DMSO = 100)” value ([2]; Fig S6g, SKBR3 Time course, 1 uM, 2hr) was 104.311 and 100.652, the “BRD4 level … (DMSO = 100)” value ([2]; Fig S6g, SKBR3 Time course, 1 uM, 4hr) was 75.4286 and 82.2353 and the “BRD4 level … (DMSO = 100)” value ([2]; Fig S6g, SKBR3 Time course, 1 uM, 8hr) was 78.3987 and 72.5234.
